Source: ChEMBL document CHEMBL1275437, “Prevalence of serotype 19A Streptococcus pneumoniae among isolates from U.S. children in 2005-2006 and activity of faropenem” (2008)
≈ marks a conversion by molar mass, not a printed value.

Experiments:
Format in all cases: functional
[1] = system: Streptococcus pneumoniae; experiment: Antibacterial activity against Streptococcus pneumoniae serotype 19F assessed as percent resistant isolates by broth microdilution method
[2] = system: Streptococcus pneumoniae; experiment: Antibacterial activity against Streptococcus pneumoniae serotype 3 assessed as percent susceptible isolates by broth microdilution method
[3] = system: Streptococcus pneumoniae; experiment: Antibacterial activity against Streptococcus pneumoniae serotype 33 assessed as percent resistant isolates by broth microdilution method
[4] = system: Streptococcus pneumoniae; experiment: Antibacterial activity against Streptococcus pneumoniae serotype 33 by broth microdilution method
[5] = system: Streptococcus pneumoniae; experiment: Antibacterial activity against Streptococcus pneumoniae serotype 35B assessed as percent susceptible isolates by broth microdilution method
[6] = system: Streptococcus pneumoniae; experiment: Antibacterial activity against Streptococcus pneumoniae serotype 15A assessed as percent resistant isolates by broth microdilution method
[7] = system: Streptococcus pneumoniae; experiment: Antibacterial activity against Streptococcus pneumoniae serotype 22 assessed as percent susceptible isolates by broth microdilution method
[8] = system: Streptococcus pneumoniae; experiment: Antibacterial activity against Streptococcus pneumoniae serotype 6A/C by broth microdilution method
[9] = system: Streptococcus pneumoniae; experiment: Antibacterial activity against Streptococcus pneumoniae serotype 35B by broth microdilution method
[10] = system: Streptococcus pneumoniae; experiment: Antibacterial activity against Streptococcus pneumoniae serotype 15A assessed as percent susceptible isolates by broth microdilution method
[11] = system: Streptococcus pneumoniae; experiment: Antibacterial activity against Streptococcus pneumoniae serotype 22 assessed as percent resistant isolates by broth microdilution method
[12] = system: Streptococcus pneumoniae; experiment: Antibacterial activity against Streptococcus pneumoniae serotype 19A assessed as percent susceptible isolates by broth microdilution method
[13] = system: Streptococcus pneumoniae; experiment: Antibacterial activity against Streptococcus pneumoniae serotype 6A/C assessed as percent resistant isolates by broth microdilution method
[14] = system: Streptococcus pneumoniae; experiment: Antibacterial activity against Streptococcus pneumoniae serotype 15A by broth microdilution method
[15] = system: Streptococcus pneumoniae; experiment: Antibacterial activity against Streptococcus pneumoniae serotype 3 by broth microdilution method
[16] = system: Streptococcus pneumoniae; experiment: Antibacterial activity against Streptococcus pneumoniae serotype 19F assessed as percent susceptible isolates by broth microdilution method
[17] = system: Streptococcus pneumoniae; experiment: Antibacterial activity against Streptococcus pneumoniae serotype 33 assessed as percent susceptible isolates by broth microdilution method
[18] = system: Streptococcus pneumoniae; experiment: Antibacterial activity against Streptococcus pneumoniae serotype 35B assessed as percent resistant isolates by broth microdilution method
[19] = system: Streptococcus pneumoniae; experiment: Antibacterial activity against Streptococcus pneumoniae serotype 19A by broth microdilution method
[20] = system: Streptococcus pneumoniae; experiment: Antibacterial activity against Streptococcus pneumoniae serotype 6A/C assessed as percent susceptible isolates by broth microdilution method
[21] = system: Streptococcus pneumoniae; experiment: Antibacterial activity against Streptococcus pneumoniae serotype 22 by broth microdilution method
[22] = system: Streptococcus pneumoniae; experiment: Antibacterial activity against Streptococcus pneumoniae serotype 3 assessed as percent resistant isolates by broth microdilution method
[23] = system: Streptococcus pneumoniae; experiment: Antibacterial activity against Streptococcus pneumoniae serotype 19F by broth microdilution method
[24] = system: Streptococcus pneumoniae; experiment: Antibacterial activity against Streptococcus pneumoniae serotype 23A by broth microdilution method
[25] = system: Streptococcus pneumoniae; experiment: Antibacterial activity against Streptococcus pneumoniae serotype 19A assessed as percent resistant isolates by broth microdilution method
[26] = system: Streptococcus pneumoniae; experiment: Antibacterial activity against Streptococcus pneumoniae serotype 23A assessed as percent susceptible isolates by broth microdilution method
[27] = system: Streptococcus pneumoniae; experiment: Antibacterial activity against Streptococcus pneumoniae serotype 23A assessed as percent resistant isolates by broth microdilution method
[28] = Streptococcus pneumoniae, serotype 19F
[29] = Streptococcus pneumoniae, serotype 15A
[30] = Streptococcus pneumoniae, serotype 6A/C
[31] = Streptococcus pneumoniae, serotype 35B
[32] = Streptococcus pneumoniae, serotype 19A

Row | Compound | % susceptible isolates [2] [%] | % resistant isolates [3] [%] | % susceptible isolates [7] [%] | MIC90 [8] [µg/mL] | MIC90 [9] [µg/mL] | percent susceptible isolates [10] [%] | % resistant isolates [11] [%] | percent susceptible isolates [12] [%] | MIC90 [14] [µg/mL] | MIC90 [15] [µg/mL] | percent susceptible isolates [16] [%] | % susceptible isolates [17] [%] | MIC90 [19] [µg/mL] | percent susceptible isolates [20] [%] | MIC90 [21] [µg/mL] | % resistant isolates [22] [%] | MIC90 [23] [µg/mL] | MIC90 [24] [µg/mL] | percent susceptible isolates [26] [%] | % resistant isolates [27] [%] | other results
1 | C=CC1=C(C(=O)O)N2C(=O)[C@@H](NC(=O)/C(=N\O)c3csc(N)n3)[C@H]2SC1 [CEFDINIR] | 100 | 0 | 100 | 2 (≈ 5.06 µM) | 4 (≈ 10.1 µM) | 72 | 0 | 46 | 1 (≈ 2.53 µM) | 0.12 (≈ 0.303 µM) | 33 | 100 | > 8 | 59 | 0.12 (≈ 0.303 µM) | 0 | > 8 | 0.5 (≈ 1.26 µM) | 93 | 0 | % resistant isolates [1, 28]: 67%; MIC90 [4]: 0.12 µg/mL (≈ 0.303 µM); % susceptible isolates [5]: 0%; % resistant isolates [6, 29]: 7%; % resistant isolates [13, 30]: 15%; % resistant isolates [18, 31]: 100%; % resistant isolates [25, 32]: 53%
2 | C[C@H]1COc2c(N3CCN(C)CC3)c(F)cc3c(=O)c(C(=O)O)cn1c23.C[C@H]1COc2c(N3CCN(C)CC3)c(F)cc3c(=O)c(C(=O)O)cn1c23.O [LEVOFLOXACIN] | 97 | 0 | 100 | 1 | 1 | 100 | 0 | 100 | 1 | 2 | 100 | 1 | 1 | 100 | 1 | 0 | 1 | 1 | 100 | 0 | % resistant isolates [1]: 0%; % susceptible isolates [5, 31]: 100%; % resistant isolates [6]: 0%; % resistant isolates [13]: 0%; % resistant isolates [18]: 0%; % resistant isolates [25]: 0%
3 | CC[C@H]1OC(=O)[C@H](C)C(=O)[C@H](C)[C@@H](O[C@@H]2O[C@H](C)C[C@H](N(C)C)[C@H]2O)[C@](C)(OC)C[C@@H](C)C(=O)[C@H](C)[C@H]2N(CCCCn3cnc(-c4cccnc4)c3)C(=O)O[C@]12C [TELITHROMYCIN] | 100 | 0 | 100 | 0.25 (≈ 0.308 µM) | 0.5 (≈ 0.616 µM) | 100 | 0 | 99 | ≤ 0.12 | ≤ 0.12 | 100 | 0.25 | 1 (≈ 1.23 µM) | 100 | ≤ 0.12 | 0 | 1 (≈ 1.23 µM) | ≤ 0.12 | 100 | 0 | % resistant isolates [1]: 0%; % susceptible isolates [5, 31]: 100%; % resistant isolates [6]: 0%; % resistant isolates [13]: 0%; % resistant isolates [18]: 0%; % resistant isolates [25]: 0%
4 | CC1(C)S[C@@H]2[C@H](NC(=O)Cc3ccccc3)C(=O)N2[C@H]1C(=O)O [PENICILLIN G] | 100 | 0 | 100 | 1 (≈ 2.99 µM) | 2 (≈ 5.98 µM) | 7 | 0 | 13 | 0.5 (≈ 1.5 µM) | ≤ 0.03 | 33 | 92 | 4 (≈ 12 µM) | 23 | ≤ 0.03 | 0 | > 4 | 0.5 (≈ 1.5 µM) | 57 | 0 | % resistant isolates [1, 28]: 67%; MIC90 [4]: ≤ 0.03 µg/mL; % susceptible isolates [5]: 0%; % resistant isolates [6]: 0%; % resistant isolates [13, 30]: 8%; % resistant isolates [18, 31]: 100%; % resistant isolates [25, 32]: 50%
5 | CC[C@H]1OC(=O)[C@H](C)[C@@H](O[C@H]2C[C@@](C)(OC)[C@@H](O)[C@H](C)O2)[C@H](C)[C@@H](O[C@@H]2O[C@H](C)C[C@H](N(C)C)[C@H]2O)[C@](C)(O)C[C@@H](C)CN(C)[C@H](C)[C@@H](O)[C@]1(C)O [AZITHROMYCIN] | 93 | 0 | 100 | 8 (≈ 10.7 µM) | 16 (≈ 21.4 µM) | 7 | 0 | 36 | > 16 | 0.5 (≈ 0.668 µM) | 29 | 42 | > 16 | 31 | ≤ 0.12 |  | > 16 | > 16 | 79 | 0 | % resistant isolates [1, 28]: 71%; MIC90 [4]: 16 µg/mL (≈ 21.4 µM); % susceptible isolates [5, 31]: 73%; % resistant isolates [6, 29]: 93%; % resistant isolates [13, 30]: 69%; % resistant isolates [18, 31]: 27%; % resistant isolates ([22]; Streptococcus pneumoniae, serotype 3): 4%; % resistant isolates [25, 32]: 64%
6 | CO/N=C(\C(=O)N[C@@H]1C(=O)N2C(C(=O)OC(C)OC(C)=O)=C(COC(N)=O)CS[C@H]12)c1ccco1 (stereo not given in full) [CEFUROXIME AXETIL] | 100 | 0 | 100 | 4 (≈ 7.84 µM) | 4 (≈ 7.84 µM) | 72 | 0 | 46 | 4 (≈ 7.84 µM) | ≤ 0.5 | 33 | 100 | 16 (≈ 31.3 µM) | 64 | ≤ 0.5 | 0 | 32 (≈ 62.7 µM) | 1 (≈ 1.96 µM) | 93 | 0 | % resistant isolates [1, 28]: 67%; MIC90 [4]: ≤ 0.5 µg/mL; % susceptible isolates [5]: 0%; % resistant isolates [6, 29]: 21%; % resistant isolates [13, 30]: 15%; % resistant isolates [18, 31]: 100%; % resistant isolates [25, 32]: 52%
